Test results published in patent US9334289B2, “Cephem compound having catechol or pseudo-catechol structure” (SHIONOGI & CO., LTD., priority 2011, dated 2016).
Values after ≈ are worked out from the molar mass of the structure shown.

Assays:
Test in all cases: MIC, CLSI broth microdilution, Test Example 2
Format in all cases: cell-based
A. baumannii SR01331 = conditions: PER-1, OXA-23.51 ESBL- & OXA-type carbapenemase producing strain, cation-adjusted Iso-Sensitest broth containing human Apo-transferrin, 5×10^5 cfu/mL; for MIC: Acinetobacter baumannii, SR01331, read-out: Minimum Inhibitory Concentration (MIC) A. baumannii SR01331
Experimental: (§1) Measurement of Minimum Inhibitory Concentration (MIC: μg/mL) was conducted according to CLSI (Clinical and Laboratory Standards Institute) method, and the amount of bacteria for inoculation was 5×10^5 cfu/mL, and cation-adjusted Iso-Sensitest broth containing human Apo-transferrin was used as a test medium, and the experiment was conducted using broth microdilution method.

E. cloacae NCTC13464 = conditions: CTX-M group 9 ESBL producing strain, cation-adjusted Iso-Sensitest broth containing human Apo-transferrin, 5×10^5 cfu/mL; for MIC: Enterobacter cloacae, NCTC13464, read-out: Minimum Inhibitory Concentration (MIC) E. cloacae NCTC 13464
Experimental: as §1

E. coli ATCCBAA-196 = conditions: TEM-10 ESBL producing strain, cation-adjusted Iso-Sensitest broth containing human Apo-transferrin, 5×10^5 cfu/mL; for MIC: Escherichia coli, ATCCBAA196, read-out: Minimum Inhibitory Concentration (MIC) E. coli ATCC BAA-196
Experimental: as §1

E. coli ATCCBAA-200 = conditions: SHV-4 ESBL producing strain, cation-adjusted Iso-Sensitest broth containing human Apo-transferrin, 5×10^5 cfu/mL; for MIC: Escherichia coli, ATCCBAA200, read-out: Minimum Inhibitory Concentration (MIC) E. coli ATCC BAA-200
Experimental: as §1

E. coli SR01337 = conditions: TEM-1 ESBL producing strain, cation-adjusted Iso-Sensitest broth containing human Apo-transferrin, 5×10^5 cfu/mL; for MIC: Escherichia coli, SR01337, read-out: Minimum Inhibitory Concentration (MIC) E. coli SR01337
Experimental: as §1

K. pneumoniae ATCC700603 = conditions: SHV18 ESBL producing strain, cation-adjusted Iso-Sensitest broth containing human Apo-transferrin, 5×10^5 cfu/mL; for MIC: Klebsiella pneumoniae, ATCC700603, read-out: Minimum Inhibitory Concentration (MIC) K. pneumoniae ATCC 700603
Experimental: as §1

P. aeruginosa SR01332 = conditions: VIM-11 MBL producing strain (carbapenem resistance strain), cation-adjusted Iso-Sensitest broth containing human Apo-transferrin, 5×10^5 cfu/mL; for MIC: Pseudomonas aeruginosa, SR01332, read-out: Minimum Inhibitory Concentration (MIC) P. aeruginosa SR01332
Experimental: as §1

P. aeruginosa SR01335 = conditions: VIM-1 like MBL producing strain (carbapenem resistance strain), cation-adjusted Iso-Sensitest broth containing human Apo-transferrin, 5×10^5 cfu/mL; for MIC: Pseudomonas aeruginosa, SR01335, read-out: Minimum Inhibitory Concentration (MIC) P. aeruginosa SR01335
Experimental: as §1

SMILES | MIC (A. baumannii SR01331) | MIC (E. cloacae NCTC13464) | MIC (E. coli ATCCBAA-196) | MIC (E. coli ATCCBAA-200) | MIC (E. coli SR01337) | MIC (K. pneumoniae ATCC700603) | MIC (P. aeruginosa SR01332) | MIC (P. aeruginosa SR01335) | Minimum Inhibitory Concentration (MIC) A. baumannii SR01331 (A. baumannii SR01331) | Minimum Inhibitory Concentration (MIC) E. cloacae NCTC 13464 (E. cloacae NCTC13464) | Minimum Inhibitory Concentration (MIC) E. coli ATCC BAA-196 (E. coli ATCCBAA-196) | Minimum Inhibitory Concentration (MIC) E. coli ATCC BAA-200 (E. coli ATCCBAA-200) | Minimum Inhibitory Concentration (MIC) E. coli SR01337 (E. coli SR01337) | Minimum Inhibitory Concentration (MIC) K. pneumoniae ATCC 700603 (K. pneumoniae ATCC700603) | Minimum Inhibitory Concentration (MIC) P. aeruginosa SR01332 (P. aeruginosa SR01332) | Minimum Inhibitory Concentration (MIC) P. aeruginosa SR01335 (P. aeruginosa SR01335)
CC(C)(O/N=C(\C(=O)N[C@@H]1C(=O)N2C(c3nnn[nH]3)=C(C[n+]3cccc4c3CCCN4C(=O)c3ccc(O)c(O)c3Cl)CS[C@H]12)c1nsc(N)n1)C(=O)O.[Na+] [Compound I-115] | 0.5 µg/mL | 1 µg/mL | 1 µg/mL | 1 µg/mL | ≤ 0.031 µg/mL | 0.5 µg/mL | 2 µg/mL | 1 µg/mL |  |  |  |  |  |  |  | 
Nc1nc(C(=NOC(CC(=O)[O-])C(=O)[O-])C(=O)NC2C(=O)N3C(c4nnn[n-]4)=C(C[N+]45CCC(CNC(=O)c6ccc(O)c(O)c6Cl)(CC4)CC5)CSC23)c(Cl)s1.[Na+].[Na+] (stereo not shown) [Compound I-94] |  |  |  |  |  |  |  |  | 0.5 µg/mL | 0.5 µg/mL | 0.063 µg/mL | 0.5 µg/mL | 0.063 µg/mL | 0.5 µg/mL | 2 µg/mL | 1 µg/mL
CC(C)(O/N=C(\C(=O)N[C@@H]1C(=O)N2C(c3nnn[nH]3)=C(C[N@+]34CCC[C@H]3CN(C(=O)c3cc(O)c(O)c(F)c3)CC4)CS[C@H]12)c1nsc(N)n1)C(=O)[O-] [Compound I-111] | 1 µg/mL (≈ 1.29 µM) | 0.25 µg/mL (≈ 0.323 µM) | 1 µg/mL (≈ 1.29 µM) |  | 0.125 µg/mL (≈ 0.162 µM) | 0.5 µg/mL (≈ 0.647 µM) | 2 µg/mL (≈ 2.59 µM) | 2 µg/mL (≈ 2.59 µM) |  |  |  |  |  |  |  | 
CC(C)(O/N=C(\C(=O)N[C@@H]1C(=O)N2C(c3nnn[nH]3)=C(C[N+]3(CCNC(=O)c4cc(O)c(O)c(Cl)c4)CCCC3)CS[C@H]12)c1nsc(N)n1)C(=O)[O-] [Compound I-119] | 0.5 µg/mL (≈ 0.643 µM) | 0.125 µg/mL (≈ 0.161 µM) | 0.5 µg/mL (≈ 0.643 µM) | 0.5 µg/mL (≈ 0.643 µM) | ≤ 0.031 µg/mL | 0.25 µg/mL (≈ 0.322 µM) | 4 µg/mL (≈ 5.15 µM) | 2 µg/mL (≈ 2.57 µM) |  |  |  |  |  |  |  | 
CC(C)(O/N=C(\C(=O)N[C@@H]1C(=O)N2C(c3nnn[n-]3)=C(C[N+]3(CCNC(=O)c4ccc(O)c(O)c4Cl)CCCCC3)CS[C@H]12)c1nc(N)sc1Cl)C(=O)[O-].[Na+] [Compound I-32] | 0.25 µg/mL | 0.063 µg/mL | ≤ 0.031 µg/mL | 0.063 µg/mL | ≤ 0.031 µg/mL | ≤ 0.031 µg/mL | 4 µg/mL | 1 µg/mL |  |  |  |  |  |  |  | 
CC(C)(O/N=C(\C(=O)N[C@@H]1C(=O)N2C(c3nnn[nH]3)=C(C[N@+]34CCC[C@H]3CN(C(=O)c3ccc(O)c(O)c3Cl)CC4)CS[C@H]12)c1nc(N)sc1Cl)C(=O)[O-] [Compound I-105] | 2 µg/mL (≈ 2.43 µM) | 0.25 µg/mL (≈ 0.304 µM) | 0.063 µg/mL (≈ 0.0766 µM) | 0.25 µg/mL (≈ 0.304 µM) | ≤ 0.031 µg/mL | 0.25 µg/mL (≈ 0.304 µM) | 4 µg/mL (≈ 4.86 µM) | 2 µg/mL (≈ 2.43 µM) |  |  |  |  |  |  |  | 
CC(C)(O/N=C(\C(=O)N[C@@H]1C(=O)N2C(c3nnn[n-]3)=C(C[n+]3ccc(CNC(=O)c4ccc(O)c(O)c4Cl)cc3)CS[C@H]12)c1nsc(N)n1)C(=O)[O-].[Na+] [Compound I-114] | 0.5 µg/mL | 0.25 µg/mL | 0.5 µg/mL | 1 µg/mL | ≤ 0.031 µg/mL | 1 µg/mL | 1 µg/mL | 1 µg/mL |  |  |  |  |  |  |  | 
CC(C)(O/N=C(\C(=O)N[C@@H]1C(=O)N2C(c3nnn[n-]3)=C(C[n+]3ccc4cc(O)c(O)cc4c3)CS[C@H]12)c1nsc(N)n1)C(=O)[O-].[Na+] [Compound I-113] | 0.125 µg/mL | ≤ 0.031 µg/mL | 0.125 µg/mL | 0.25 µg/mL | ≤ 0.031 µg/mL | 0.125 µg/mL | 0.5 µg/mL | 0.25 µg/mL |  |  |  |  |  |  |  | 
CC(C)(O/N=C(\C(=O)N[C@@H]1C(=O)N2C(c3nnn[nH]3)=C(C[N+]3(C)CCN(C(=O)c4ccc(O)c(O)c4Cl)CC3)CS[C@H]12)c1nsc(N)n1)C(=O)O.[Na+] [Compound I-110] | 1 µg/mL | 0.25 µg/mL | 0.5 µg/mL |  | 0.063 µg/mL | 0.25 µg/mL | 8 µg/mL | 0.5 µg/mL |  |  |  |  |  |  |  | 
C[N+]1(CC2=C(c3nnn[nH]3)N3C(=O)[C@@H](NC(=O)/C(=N\O[C@@H](CC(=O)O)C(=O)O)c4nc(N)sc4Cl)[C@H]3SC2)[C@@H]2CC[C@H]1C[C@@H](NC(=O)c1ccc(O)c(O)c1Cl)C2.[Na+].[Na+] (stereo partly shown) [Compound I-96] | 0.25 µg/mL | 0.5 µg/mL | 0.25 µg/mL | 1 µg/mL | 0.125 µg/mL | 1 µg/mL | 4 µg/mL | 2 µg/mL |  |  |  |  |  |  |  | 
C[N+](C)(CCNC(=O)c1ccc(O)c(O)c1Cl)CC1=C(c2nnn[nH]2)N2C(=O)[C@@H](NC(=O)/C(=N\O[C@@H](CC(=O)O)C(=O)[O-])c3nc(N)sc3Cl)[C@H]2SC1 [Compound I-101] | 0.25 µg/mL (≈ 0.307 µM) | 0.063 µg/mL (≈ 0.0773 µM) | ≤ 0.031 µg/mL | 0.063 µg/mL (≈ 0.0773 µM) | ≤ 0.031 µg/mL | 0.125 µg/mL (≈ 0.153 µM) | 2 µg/mL (≈ 2.46 µM) | 1 µg/mL (≈ 1.23 µM) |  |  |  |  |  |  |  | 
Nc1nc(/C(=N/O[C@@H](CC(=O)O)C(=O)[O-])C(=O)N[C@@H]2C(=O)N3C(c4nnn[nH]4)=C(C[N@+]45CCC[C@H]4CN(C(=O)c4ccc(O)c(O)c4Cl)CC5)CS[C@H]23)c(Cl)s1 [Compound I-97] | 0.25 µg/mL (≈ 0.293 µM) | 0.5 µg/mL (≈ 0.586 µM) | 0.125 µg/mL (≈ 0.147 µM) | 0.5 µg/mL (≈ 0.586 µM) | 0.25 µg/mL (≈ 0.293 µM) | 0.5 µg/mL (≈ 0.586 µM) | 4 µg/mL (≈ 4.69 µM) | 1 µg/mL (≈ 1.17 µM) |  |  |  |  |  |  |  | 
CC(C)(O/N=C(\C(=O)N[C@@H]1C(=O)N2C(c3nnn[n-]3)=C(C[N+]3(C)[C@@H]4CC[C@H]3CC(NC(=O)c3cc(O)c(O)c(F)c3)C4)CS[C@H]12)c1nc(N)sc1Cl)C(=O)[O-].[Na+] (stereo partly shown) [Compound I-33] | 0.5 µg/mL | 0.25 µg/mL | 0.063 µg/mL | 0.25 µg/mL | 0.063 µg/mL | 0.25 µg/mL | 2 µg/mL | 4 µg/mL |  |  |  |  |  |  |  | 
CC(C)(O/N=C(\C(=O)N[C@@H]1C(=O)N2C(c3nnn[nH]3)=C(C[N@+]34CCC[C@H]3CN(C(=O)c3ccc(O)c(O)c3Cl)CC4)CS[C@H]12)c1nsc(N)n1)C(=O)[O-] [Compound I-112] | 1 µg/mL (≈ 1.27 µM) | 0.25 µg/mL (≈ 0.317 µM) | 0.5 µg/mL (≈ 0.634 µM) |  | 0.063 µg/mL (≈ 0.0798 µM) | 0.5 µg/mL (≈ 0.634 µM) | 4 µg/mL (≈ 5.07 µM) | 2 µg/mL (≈ 2.53 µM) |  |  |  |  |  |  |  | 
